Paper PMC9142559 (2022)

Columns and labels:
[1] = tested on: yjdF wt aptamer domain (Streptococcus ratti) (RNA, riboswitch) GGUAUAAAAACACAUUGCAGUUGGUAGUCUGCAAGCAUCAUCAGAUGUCAGUAACCUUCCCUCCAAGGUCGUCCCAUACC; assay: SHAPE probing (protection of A4, A5); settings: 150 mM K+, 3 mM Mg2+; 20 mM MOPS-KOH pH 7.0, 10 μM EDTA, 2.5 μM ligand, 21 °C
[2] = tested on: yjdF wt aptamer domain (Streptococcus ratti) (RNA, riboswitch) GGUAUAAAAACACAUUGCAGUUGGUAGUCUGCAAGCAUCAUCAGAUGUCAGUAACCUUCCCUCCAAGGUCGUCCCAUACC; assay: ligand fluorescence emission (10-fold increase); settings: 100 mM K+, 5 mM Mg2+; 20 mM Mops pH 7.0, 10 μM EDTA, 50 nM ligand, 20 °C
[3] = tested on: yjdF wt aptamer domain (Enterococcus pallens) (RNA, riboswitch) CGAGCAUAAAAACACGAGGCGGUUGGUAGUCCGCCGCAUGAAAAUGUCAGUAGCCUUCCCUCCCGGGUCGUCCAUUGCUCG; assay: SEC (ligand-dependent folding); settings: 100 mM K+, 5 mM Mg2+; 20 mM Mops pH 7.0, 10 μM EDTA; 60 nM chelerythrine in running buffer; indirect
[4] = tested on: yjdF wt aptamer domain (Streptococcus ratti) (RNA, riboswitch) GGUAUAAAAACACAUUGCAGUUGGUAGUCUGCAAGCAUCAUCAGAUGUCAGUAACCUUCCCUCCAAGGUCGUCCCAUACC; assay: ligand fluorescence emission (10-fold increase, 25 nm shift); settings: 100 mM K+, 5 mM Mg2+; 20 mM Mops pH 7.0, 10 μM EDTA, 50 nM ligand, 20 °C
[5] = tested on: yjdF wt aptamer domain (Staphylococcus aureus) (RNA, riboswitch) UAGAAGUGUAAAAACACAAUUGGGUUGGUAGUCCCAAUGCAGUUUUAAAACUGUCAGUAACCUUCCUCCUCGGGUUGUCCGUCAUUUCUA; assay: SAXS; ribosome filter binding (ligand-dependent); settings: 100 mM K+, 2.5 mM Mg2+ (SAXS); 20 mM Mops pH 7.0 (SAXS)
[6] = tested on: circΔP3 (circ∆L3) (RNA, riboswitch) GAUGUCAGUAACCUUCCCUCCAAGGUCGUCCCAUACCGUUCGCGGUAUAAAAACACAUUGCAGUUGGUAGUCUGCAAGCAUC; assay: ligand fluorescence titration with RNA; settings: 100 mM K+, 5 mM Mg2+; 20 mM Mops pH 7.0, 10 μM EDTA, 50 nM harmine; biphasic two-site Hill fit, site not stated; nearly identical to wt
[7] = tested on: yjdF TLC (T-loop chimera, Streptococcus ratti) (RNA, riboswitch) GGUAUAAAAACACAUUGCAGUUGGUAGUCUGCAAGCAUCAUCAGAUGUCAGUAACCGGUUCGAAUCCGGUCGUCCCAUACC; assay: ligand fluorescence titration with RNA; settings: 100 mM K+, 5 mM Mg2+; 20 mM Mops pH 7.0, 10 μM EDTA, 50 nM harmine; biphasic two-site Hill fit, site not stated; nearly identical to wt
[8] = tested on: yjdF wt aptamer domain (Streptococcus ratti) (RNA, riboswitch) GGUAUAAAAACACAUUGCAGUUGGUAGUCUGCAAGCAUCAUCAGAUGUCAGUAACCUUCCCUCCAAGGUCGUCCCAUACC; assay: ligand fluorescence titration with RNA; settings: 100 mM K+, 5 mM Mg2+; 20 mM Mops pH 7.0, 10 μM EDTA, 50 nM harmine; biphasic two-site Hill fit, site not stated
[9] = tested on: yjdF wt aptamer domain (Staphylococcus aureus) (RNA, riboswitch) UAGAAGUGUAAAAACACAAUUGGGUUGGUAGUCCCAAUGCAGUUUUAAAACUGUCAGUAACCUUCCUCCUCGGGUUGUCCGUCAUUUCUA; assay: ribosome filter binding (ligand-dependent); settings: 100 mM NH4+, 5 mM Mg2+; 20 mM Hepes pH 7.0, 0.5 mM spermine; indirect

| Structure (SMILES) | binding [1] | binding [2] | binding [3] | binding [4] | binding [5] | binding [6] | binding [7] | Kd [8] | binding [9] |
| --- | --- | --- | --- | --- | --- | --- | --- | --- | --- |
| C[n+]1cc2c3c(ccc2c2ccc4cc5c(cc4c21)OCO5)OCO3 | yes | yes |  |  |  |  |  |  |  |
| COc1ccc2c(c[n+](C)c3c4cc5c(cc4ccc23)OCO5)c1OC | yes |  | yes | yes | yes |  |  |  |  |
| COc1ccc2c(c1)[nH]c1c(C)nccc12 |  |  |  |  |  | yes | yes | 230 ± 30 nM | yes |
